Assay results: PubChem BioAssay AID2060338 (Molecular Pharmacology Branch, DTP, NCI, 2025)
pIC50: −log10 of the molar value. Several values for one entry are separate records, joined by “and”; a condition that tells them apart may be missing. Identical values can stand only once.

Tested on: 556581-035-R-J1-PDC spheroids with HUVEC/MSC, viability
Experiment: Anticancer human tumor 556581-035-R-J1-PDC patient-derived ovarian carcinoma cell line growth inhibition [IpAb]
Conditions: for viability, T/C: stronger effect = lower value
From the text: Combinatorial screen of targeted agents with ipatasertib and abemaciclib in multi-cell type tumor spheroids
A high-throughput screen of multi-cell type tumor spheroids was designed to identify active combinations of targeted small molecules and ipatasertib or abemaciclib. Complex spheroids include a stromal component modeled by human endothelial cells (HUVEC) and fibroblasts modeled by human mesenchymal stem cells (MSCs). The concentration ranges selected for each drug and investigational agent were based upon clinically achievable concentrations if the clinical Cmax of the agent was known.
Compounds. The drugs and investigational agents: ipatasertib (NSC767898), abemaciclib(NSC768073), selumetinib (NSC741078), trametinib (758246), adavosertib (NSC754352), everolimus (NSC733504), sapanisertib (NSC764658), vemurafenib (NSC761431), venetoclax (NSC766270), copanlisib (NSC809693), apelisib (NSC765974), palbociblib (NSC758247), vemurafenib (NSC761431), dabrafenib (NSC764134), ravoxertinib (NSC781343), BMS-387032 (NSC767048), sotorasib (NSC818433), talazoparib (NSC767125) and afursertib (NSC778305), were obtained from the National Cancer Institute (NCI) Developmental Therapeutics Program Chemical Repository. The FDA-approved anticancer drug set is available from the NCI Developmental Therapeutics Program. […] The stock solutions were prepared in dimethyl sulfoxide (DMSO, Sigma-Aldrich, St. Louis, MO, cat. D2650) at 800-fold the tested concentration and stored at -70 degrees C prior to their use. All drugs and investigational agents were tested over a range starting from a high concentration at or near the clinical Cmax and decreasing in half-log increments. If the clinical Cmax for an agent had not been determined, the highest concentration tested was 10 microM.
NCI60 Cell Culture. NCI60 cell lines were obtained from the NCI Developmental Therapeutics Program Tumor Repository. For each lot of cells, the Repository performed Applied Biosystems AmpFLSTR Identifiler testing with PCR amplification to confirm consistency with the published Identifier STR profile for each cell line. Cells were kept in continuous culture for no more than 20 passages. The optimal seeding densities for each of the cell lines at each time point assessed were determined prior to performing the concentration response studies. Briefly, the NCI60 human tumor lines were grown as monolayers in RPMI 1640 medium supplemented with 10% FBS and 2 mmol/L L-glutamine.
An additional 9 lines were from the NCI60 cell line panel including MDA-MB-231 breast carcinoma, MDA-MB-468 breast carcinoma, MCF7 breast carcinoma, Hs578T breast carcinoma, MALME-3M melanoma, SK-MEL-2 melanoma, SK-OV-3 ovarian carcinoma, DU-145 prostate carcinoma, PC-3 prostate carcinoma, all cell lines along with major genetic alterations are listed on Table 2. Pooled donor human umbilical vein endothelial cells (HUVEC, Lonza, cat. CC-2519) and human mesenchymal stem cells (hMSC, Lonza, cat. PT-2501) were purchased from Lonza (Walkersville, MD).
PDMR cell lines were grown in complete medium (DC medium): Dulbecco's modified Eagle's medium (DMEM)/F12 supplemented with 5% fetal bovine serum (FBS), 2 mM L-glutamine, 100 U/mL penicillin and 100 µg/ml streptomycin, 0.4 µg/ml hydrocortisone, 10 ng/ml epidermal growth factor (EGF) recombinant human protein, 24 µg/mL adenine, and 0.1 mg/mL primocin. During culture from frozen stock vials, PDMR cells were cultured in the same medium containing 10 µM Y-27632 (see Table 3). The PDCs were cultured in complete DMEM/F12 media without 10 microM Y-27632 dihydrochloride for at least two passages prior to the screen. The pooled donor HUVEC and hMSC were cultured in endothelial cell growth medium 2 (PromoCell, Heidelberg, Germany, cat. C-22011) and mesenchymal stem cell growth medium 2 (PromoCell, cat. C-28009), respectively. For all experiments, HUVEC and hMSC were used at passages </=5.
[…]

[1] = curve of first compound, second compound 0.1 µM
[2] = curve of first compound, second compound 0.316 µM
[3] = curve of first compound, second compound 1 µM
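Also: spheroids exposed to compounds for 7 days before readout.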

Q: `CC(=O)c1c(C)c2cnc(Nc3ccc(N4CCNCC4)cn3)nc2n(C2CCCC2)c1=O` was tested. Which viability, T/C (compound 0.000949 µM) did it give?
A: 92.6% and 100%

Q: What about the viability, T/C (compound 0.003 µM) of the same molecule?
A: 125% and 99.8%

Q: And the viability, T/C (compound 0.00949 µM)?
A: 91.4% and 106%

Q: What about the viability, T/C (compound 0.03 µM) of the same molecule?
A: 106% and 104%

Q: And the viability, T/C (compound 0.0949 µM)?
A: 94.1% and 108%

Q: What about the viability, T/C (compound 0.3 µM) of the same molecule?
A: 99.7% and 95.6%

Q: What about the pIC50 (curve of compound) of the same molecule?
A: < 6.52

Q: Which results are given for `COc1c(OCCCN2CCOCC2)ccc2c3n(c(=NC(=O)c4cnc(N)nc4)nc12)CCN3` + CCN1CCN(Cc2ccc(Nc3ncc(F)c(-c4cc(F)c5nc(C)n(C(C)C)c5c4)n3)nc2)CC1?
A: pIC50 (curve of first compound, second compound 0.01 µM): 7.83; pIC50 (curve of first compound, second compound 0.0316 µM): 7.73; pIC50 [1]: 7.66; pIC50 [2]: 7.67; pIC50 [3]: 7.91; viability, T/C (second compound 0.01 µM, first compound 0.00316 µM): 76.3%; viability, T/C (second compound 0.01 µM, first compound 0.01 µM): 49.2%; viability, T/C (second compound 0.01 µM, first compound 0.0316 µM): 39.6%; viability, T/C (second compound 0.01 µM, first compound 0.1 µM): 29.9%; viability, T/C (second compound 0.01 µM, first compound 0.316 µM): 12.4%; viability, T/C (second compound 0.01 µM, first compound 1 µM): 3.84%; viability, T/C (second compound 0.0316 µM, first compound 0.00316 µM): 77.2%; viability, T/C (second compound 0.0316 µM, first compound 0.01 µM): 53.8%; viability, T/C (second compound 0.0316 µM, first compound 0.0316 µM): 43.9%; viability, T/C (second compound 0.0316 µM, first compound 0.1 µM): 32.4%; viability, T/C (second compound 0.0316 µM, first compound 0.316 µM): 11.2%; viability, T/C (second compound 0.0316 µM, first compound 1 µM): 2.33%; viability, T/C (second compound 0.1 µM, first compound 0.00316 µM): 84%; viability, T/C (second compound 0.1 µM, first compound 0.01 µM): 60.9%; viability, T/C (second compound 0.1 µM, first compound 0.0316 µM): 40.3%; viability, T/C (second compound 0.1 µM, first compound 0.1 µM): 34.4%; viability, T/C (second compound 0.1 µM, first compound 0.316 µM): 11.3%; viability, T/C (second compound 0.1 µM, first compound 1 µM): 2%; viability, T/C (second compound 0.316 µM, first compound 0.00316 µM): 84.9%; viability, T/C (second compound 0.316 µM, first compound 0.01 µM): 63.2%; viability, T/C (second compound 0.316 µM, first compound 0.0316 µM): 41.2%; viability, T/C (second compound 0.316 µM, first compound 0.1 µM): 29.9%; viability, T/C (second compound 0.316 µM, first compound 0.316 µM): 7.71%; viability, T/C (second compound 0.316 µM, first compound 1 µM): 3.06%; viability, T/C (second compound 1 µM, first compound 0.00316 µM): 59.9%; viability, T/C (second compound 1 µM, first compound 0.01 µM): 51.7%; viability, T/C (second compound 1 µM, first compound 0.0316 µM): 40.4%; viability, T/C (second compound 1 µM, first compound 0.1 µM): 29.8%; viability, T/C (second compound 1 µM, first compound 0.316 µM): 12%; viability, T/C (second compound 1 µM, first compound 1 µM): 2.02%

Q: `CC(C)(C)c1cnc(CSc2cnc(NC(=O)C3CCNCC3)s2)o1` + CC(C)NCC(C(=O)N1CCN(c2ncnc3c2C(C)CC3O)CC1)c1ccc(Cl)cc1 was tested. Which pIC50 [1] did it give?
A: 6.97

Q: What about the pIC50 [2] of the same molecule?
A: 6.86

Q: And the pIC50 [3]?
A: 7.26

Q: What about the pIC50 (curve of first compound, second compound 3.16 µM) of the same molecule?
A: 7.37

Q: And the pIC50 (curve of first compound, second compound 10 µM)?
A: > 8.02

Q: And the viability, T/C (second compound 0.1 µM, first compound 0.00949 µM)?
A: 86.1%

Q: What about the viability, T/C (second compound 0.1 µM, first compound 0.03 µM) of the same molecule?
A: 116%

Q: What about the viability, T/C (second compound 0.1 µM, first compound 0.0949 µM) of the same molecule?
A: 55.3%

Q: What about the viability, T/C (second compound 0.1 µM, first compound 0.3 µM) of the same molecule?
A: 3.48%

Q: And the viability, T/C (second compound 0.1 µM, first compound 0.949 µM)?
A: 3.84%

Q: What about the viability, T/C (second compound 0.1 µM, first compound 3 µM) of the same molecule?
A: 2.08%

Q: And the viability, T/C (second compound 0.316 µM, first compound 0.00949 µM)?
A: 81.1%

Q: What about the viability, T/C (second compound 0.316 µM, first compound 0.03 µM) of the same molecule?
A: 89.9%

Q: And the viability, T/C (second compound 0.316 µM, first compound 0.0949 µM)?
A: 71.9%

Q: And the viability, T/C (second compound 0.316 µM, first compound 0.3 µM)?
A: 3.02%

Q: What about the viability, T/C (second compound 0.316 µM, first compound 0.949 µM) of the same molecule?
A: 2.73%

Q: And the viability, T/C (second compound 0.316 µM, first compound 3 µM)?
A: 3.48%

Q: What about the viability, T/C (second compound 1 µM, first compound 0.00949 µM) of the same molecule?
A: 64.6%

Q: And the viability, T/C (second compound 1 µM, first compound 0.03 µM)?
A: 65.4%

Q: And the viability, T/C (second compound 1 µM, first compound 0.0949 µM)?
A: 36.7%

Q: What about the viability, T/C (second compound 1 µM, first compound 0.3 µM) of the same molecule?
A: 2.25%

Q: What about the viability, T/C (second compound 1 µM, first compound 0.949 µM) of the same molecule?
A: 2.57%

Q: What about the viability, T/C (second compound 1 µM, first compound 3 µM) of the same molecule?
A: 3.16%

Q: What about the viability, T/C (second compound 3.16 µM, first compound 0.00949 µM) of the same molecule?
A: 56.4%

Q: What about the viability, T/C (second compound 3.16 µM, first compound 0.03 µM) of the same molecule?
A: 55.7%

Q: And the viability, T/C (second compound 3.16 µM, first compound 0.0949 µM)?
A: 36.6%

Q: What about the viability, T/C (second compound 3.16 µM, first compound 0.3 µM) of the same molecule?
A: 2.16%

Q: What about the viability, T/C (second compound 3.16 µM, first compound 0.949 µM) of the same molecule?
A: 3.96%

Q: What about the viability, T/C (second compound 3.16 µM, first compound 3 µM) of the same molecule?
A: 2.31%

Q: What about the viability, T/C (second compound 10 µM, first compound 0.00949 µM) of the same molecule?
A: 46.1%

Q: What about the viability, T/C (second compound 10 µM, first compound 0.03 µM) of the same molecule?
A: 44.2%

Q: And the viability, T/C (second compound 10 µM, first compound 0.0949 µM)?
A: 11.5%

Q: And the viability, T/C (second compound 10 µM, first compound 0.3 µM)?
A: 2.21%

Q: What about the viability, T/C (second compound 10 µM, first compound 0.949 µM) of the same molecule?
A: 1.45%

Q: What about the viability, T/C (second compound 10 µM, first compound 3 µM) of the same molecule?
A: 1.36%

Q: With `C=CC(=O)N1CCN(c2nc(=O)n(-c3c(C)ccnc3C(C)C)c3nc(-c4c(O)cccc4F)c(F)cc23)C(C)C1` (stereo unspecified) as the molecule, how does the viability, T/C (compound 0.0316 µM) read?
A: 107% and 97.3%

Q: What about the viability, T/C (compound 0.1 µM) of the same molecule?
A: 97.5% and 113%

Q: And the viability, T/C (compound 0.316 µM)?
A: 113% and 118%

Q: And the viability, T/C (compound 1 µM)?
A: 106% and 105%

Q: And the viability, T/C (compound 3.16 µM)?
A: 102% and 126%

Q: What about the viability, T/C (compound 10 µM) of the same molecule?
A: 31.9% and 31.5%

Q: What about the pIC50 (curve of compound) of the same molecule?
A: 5.13 and 5.11

Q: Which viability, T/C (compound 0.0316 µM) does the source give for `Cn1ncc(Cl)c1-c1cc(C(=O)NC(CN)Cc2cccc(F)c2)sc1Cl` (stereo unspecified) here?
A: 90.6% and 96.9%

Q: And the viability, T/C (compound 0.1 µM)?
A: 81% and 74.5%

Q: What about the viability, T/C (compound 0.316 µM) of the same molecule?
A: 71.5% and 69.2%

Q: And the viability, T/C (compound 1 µM)?
A: 60.2% and 70.8%

Q: And the viability, T/C (compound 3.16 µM)?
A: 52.5% and 47.6%

Q: And the viability, T/C (compound 10 µM)?
A: 0.3% and 0.29%

Q: And the pIC50 (curve of compound)?
A: 5.63 and 5.62
